test system: KM12-luc cells; assay: Cell proliferation and growth inhibition assay (CCK-8) in KM12-luc; type: cell-based; settings: KM12-Luc, 72 h, KM12-luc cells, treated with test compounds for 72 hrs, CCK-8 viability; read-out: NTRK IC50 in KM12-luc
Method: MV-4-11 and H1975 cells were obtained from the American Type Culture Collection and KM12-luc cells were obtained from JCRB Cell Bank. All cell lines were maintained at 37° C. with 5% C02, in media supplemented with 10% fetal bovine serum and penicillin (100 units/mL) and streptomycin (100 μg/mL). MV-4-11 cells were maintained in Iscove's Modified Dubecco's Medium, H1975 cells were cultured with RPMI 1640 media, and KM12-luc cells were maintained in Dulbecco's Modification of Eagle's Medium. CCK-8 reagent was obtained from Yeasen. Cell proliferation was assessed by CCK-8 assay (Yeasen) per the manufacturer's instructions. […] Cell viability was assayed by incubating the cells with CCK-8 reagent for 1-4 hrs. Absorbance was measured at OD450 using the Beckman DTX880. The data was calculated using GraphPad Prism version 6.01. The IC50 values were fitted using a non-linear regression model with a sigmoidal dose response.

SMILES | IC50
COc1cnc(Nc2ccc(N3CC[C@@H](N(C)C)C3)c(NC(C)=O)c2)nc1-c1cn(C)c2c(F)cccc12 [Compound R-281, (R)—N-(2-(3-(dimethylamino)pyrrolidin-1-yl)-5-((4-(7-fluoro-1-methyl-1H-indol-3-yl)-5-methoxypyrimidin-2-yl)amino)phenyl)acetamide] | 121 nM
CC(=O)Nc1cc(Nc2ncc(C(F)(F)F)c(-c3cn(C)c4ccccc34)n2)ccc1OCCN(C)C [Compound 315, N-(2-(2-(dimethylamino)ethoxy)-5-((4-(1-methyl-1H-indol-3-yl)-5-(trifluoromethyl)pyrimidin-2-yl)amino)phenyl)acetamide] | 85.1 nM
CC(=O)Nc1cc(Nc2ncc(C(F)(F)F)c(-c3cn(C)c4ccc(F)cc34)n2)ccc1N(C)CCN(C)C [Compound 325, N-(2-((2-(dimethylamino)ethyl)(methyl)amino)-5-((4-(5-fluoro-1-methyl-1H-indol-3-yl)-5-(trifluoromethyl)pyrimidin-2-yl)amino)phenyl)acetamide] | 39.4 nM
CNc1cc(Nc2ncc(OC)c(-c3c[nH]c4ccccc34)n2)ccc1N(C)CCN(C)C [Compound 273a, N^4-(4-(1H-indol-3-yl)-5-methoxypyrimidin-2-yl)-N1-(2-(dimethylamino)ethyl)-N^1,N^2-dimethylbenzene-1,2,4-triamine] | 127 nM
CCN(CCN(C)C)c1ccc(Nc2ncc(C(F)(F)F)c(-c3c[nH]c4ccccc34)n2)cc1NC(C)=O [Compound 300a, N-(5-((4-(1H-indol-3-yl)-5-(trifluoromethyl)pyrimidin-2-yl)amino)-2-((2-(dimethylamino)ethyl)(ethyl)amino)phenyl)acetamide] | 27.9 nM
COc1cnc(Nc2ccc(N(CCN(C)C)C(C)=O)c(NC(C)=O)c2)nc1-c1c[nH]c2c(OC)cccc12 [Compound 286, N-(2-acetamido-4-((5-methoxy-4-(7-methoxy-1H-indol-3-yl)pyrimidin-2-yl)amino)phenyl)-N-(2-(dimethylamino)ethyl)acetamide] | 14.6 nM
COc1cnc(Nc2ccc(N(C)CCN(C)C)c(NC(C)=O)c2)nc1-c1cn(C)c2ccccc12 [Compound 274, N-(2-((2-(dimethylamino)ethyl)(methyl)amino)-5-(5-methoxy-4-(1-methyl-1H-indol-3-yl)pyrimidin-2-ylamino)phenyl)acetamide] | 128 nM
Cc1cccc2c(-c3nc(Nc4ccc(N(C)CCN(C)C)c(N)c4)ncc3Cl)cn(C)c12 [Compound 428, N^4-(5-chloro-4-(1,7-dimethyl-1H-indol-3-yl)pyrimidin-2-yl)-N^1-(2-(dimethylamino)ethyl)-N^1-methylbenzene-1,2,4-triamine] | 46.4 nM
CNc1cc(Nc2ncc(F)c(-c3c[nH]c4ccccc34)n2)ccc1N(C)CCN(C)C [Compound 260, N^1-(2-(dimethylamino)ethyl)-N^4-(5-fluoro-4-(1H-indol-3-yl)pyrimidin-2-yl)-N^1,N^2-dimethylbenzene-1,2,4-triamine] | 145 nM
CN(C)CCN(C)c1cc(F)c(Nc2ncc(C(F)(F)F)c(-c3c[nH]c4c(F)cccc34)n2)cc1N [Compound 339, N^1-(2-(dimethylamino)ethyl)-5-fluoro-N^4-(4-(7-fluoro-1H-indol-3-yl)-5-(trifluoromethyl)pyrimidin-2-yl)-N^1-methylbenzene-1,2,4-triamine] | 75.2 nM
CCN(CCN(C)C)c1ccc(Nc2ncc(C(F)(F)F)c(-c3c[nH]c4c(F)cccc34)n2)cc1NC(C)=O [Compound 336, N-(2-((2-(dimethylamino)ethyl)(ethyl)amino)-5-((4-(7-fluoro-1H-indol-3-yl)-5-(trifluoromethyl)pyrimidin-2-yl)amino)phenyl)acetamide] | 64.8 nM
Cc1nc2cc(Nc3ncc(C(F)(F)F)c(-c4cn(C)c5c(F)cccc45)n3)ccc2n1CCN(C)C [Compound 351, 1-(2-(dimethylamino)ethyl)-N-(4-(7-fluoro-1-methyl-1H-indol-3-yl)-5-(trifluoromethyl)pyrimidin-2-yl)-2-methyl-1H-benzo[d]imidazol-5-amine] | 172 nM
Cc1cccc2c(-c3nc(Nc4ccc(N5CC[C@@H](N(C)C)C5)c(N)c4)ncc3Cl)c[nH]c12 [Compound R-425, (R)—N^1-(5-chloro-4-(7-methyl-1H-indol-3-yl)pyrimidin-2-yl)-4-(3-(dimethylamino)pyrrolidin-1-yl)benzene-1,3-diamine] | 11.3 nM
CCC(=O)Nc1cccc(Nc2ncc(Cl)c(Nc3ccc(C4CCCN(C(C)=O)C4)cc3OC)n2)c1 (stereo not shown) [Compound 165, N-(3-((4-((4-(1-acetylpiperidin-3-yl)-2-methoxyphenyl)amino)-5-chloropyrimidin-2-yl)amino)phenyl)propionamide] | 171 nM
CCN(C(=O)CN(C)C)c1ccc(Nc2ncc(Cl)c(-c3c[nH]c4ccccc34)n2)cc1NC(C)=O [Compound 449, N-(2-acetamido-4-((5-chloro-4-(1H-indol-3-yl)pyrimidin-2-yl)amino)phenyl)-2-(dimethylamino)-N-ethylacetamide] | > 1000 nM
CC(=O)Nc1cc(Nc2ncc(Cl)c(-c3c[nH]c4ccccc34)n2)ccc1NC(=O)CN(C)C [Compound 393, N-(2-acetamido-4-((5-chloro-4-(1H-indol-3-yl)pyrimidin-2-yl)amino)phenyl)-2-(dimethylamino)acetamide] | 23.1 nM
CNc1cccc(Oc2nc(Nc3ccc(N4CCN(C)CC4)c(F)c3)nc3[nH]ccc23)c1 [Compound 177, N-(3-fluoro-4-(4-methylpiperazin-1-yl)phenyl)-4-(3-(methylamino)phenoxy)-7H-pyrrolo[2,3-d]pyrimidin-2-amine] | 132 nM
CC(=O)Nc1cc(Nc2ncc(F)c(-c3cn(C)c4cc(F)c(F)cc34)n2)ccc1N(C)CCN(C)C [Compound 268, N-(5-((4-(5,6-difluoro-1-methyl-1H-indol-3-yl)-5-fluoropyrimidin-2-yl)amino)-2-((2-(dimethylamino)ethyl)(methyl)amino)phenyl)acetamide] | 784 nM
CC(=O)Nc1cc(Nc2ncc(Cl)c(-c3cn(C)c4c(F)cccc34)n2)ccc1N(C)CCN(C)C [Compound 418, N-(5-((5-chloro-4-(7-fluoro-1-methyl-1H-indol-3-yl)pyrimidin-2-yl)amino)-2-((2-(dimethylamino)ethyl)(methyl)amino)phenyl)acetamide] | 79.2 nM

same assay, conditions: KM12-Luc, 72 h, read-out: NTRK IC50 in KM12-luc

SMILES | IC50
CCNc1cc(Nc2nc(-c3cn(C)c4ccc(F)cc34)c3cc[nH]c3n2)ccc1N(CC)CCN(C)C [Compound 227d, N^1-(2-(dimethylamino)ethyl)-N^1,N^2-diethyl-N^4-(4-(5-fluoro-1-methyl-1H-indol-3-yl)-7H-pyrrolo[2,3-d]pyrimidin-2-yl)benzene-1,2,4-triamine] | 2010 nM

same assay, conditions: KM12-luc cells, treated with test compounds for 72 hrs, CCK-8 viability; read-out: NTRK IC50 in KM12-luc

SMILES | IC50
COc1cccc2c(-c3nc(Nc4ccc(N5CC[C@@H](N(C)C)C5)c(N)c4)ncc3Cl)cn(C)c12 [Compound R-414, (R)—N^1-(5-chloro-4-(7-methoxy-1-methyl-1H-indol-3-yl)pyrimidin-2-yl)-4-(3-(dimethylamino)pyrrolidin-1-yl)benzene-1,3-diamine] | 12.4 nM
COc1cccc2c(-c3nc(Nc4ccc(N5CC[C@@H](N(C)C)C5)c(N)c4)ncc3Cl)cn(C)c12 [Compound R-439, (R)—N^1-(5-chloro-4-(7-methoxy-1-methyl-1H-indol-3-yl)pyrimidin-2-yl)-4-(3-(dimethylamino)pyrrolidin-1-yl)benzene-1,3-diamine] | 128 nM
